Experimental data taken from patent US8455440B2, “Combination anticoagulant therapy with a compound that acts as a factor Xa inhibitor” (Millennium Pharmaceuticals, Inc., priority 2007, dated 2013).
Positions of bridges follow the written chain, without caps; N, C: chain ends. Non-standard residues stand in square brackets, D forms with d. Residues, ends and D or L forms follow the SMILES beside them. hArg = N=C(N)NCCCC[C@H](N)C(=O)O; Mpa = O=C(O)CCS

Key:
[1] = tested on: ferric chloride induced thrombosis in rat carotid artery; assay: Ferric chloride induced thrombosis in rat carotid artery; format: in vivo
[2] = tested on: ADP induced platelet aggregation; assay: Ex vivo platelet aggregation induced by 10 μM ADP; format: in vivo; conditions: Rattus norvegicus, po, 72 h, clopidogrel 1 mg/kg, dosed orally for three days, read-out: inhibition of ADP induced platelet aggregation in platelet rich plasma
Description: (§1) In this experiment, the ability of Compound A to maintain vessel patency under arterial flow conditions in ferric chloride induced thrombosis in rat carotid artery is compared to that achieved by clopidogrel. Compound A was administered by intravenous infusions and clopidogrel was dosed orally for three days. Ex vivo platelet aggregation induced by 10 μM ADP and clotting times (prothrombin time, PT and activated partial thromboplastin times, aPTT) were measured over the experimental time course (90 min) in all animals.
This level of platelet inhibition is approximately equivalent to that attained by clopidogrel's effect on human platelets at the therapeutic dose in clinical use (75 mg per day). […] Time to occlusion was measured in animals that had vessel occlusion.

[3] = tested on: systolic and diastolic blood pressure; assay: Telemetry blood pressure in conscious beagle dogs, three way crossover; format: in vivo
Description: The study design was a three way crossover with one week between doses to ensure complete elimination of residual agents from the dogs' circulatory system. […] Data acquisition and analysis was performed using LDS Life Science Suite Ponemah P3 plus V 4.20 software with results reported as 10 minute averages for each animal.
AUC was derived from the systolic and diastolic baseline. […] Negative values represent a decrease in blood pressure relative to the baseline value.

[4] = tested on: thrombin generation; assay: Thrombin generation assay in platelet rich plasma (PRP); format: biochemical, human; conditions: ASA donors (aspirin for at least three days), 0 nM Compound A; normalized to Non-ASA at 0 nM
Description: PRP and PPP were prepared by spinning the anticoagulated blood at ˜100×g or 1000×g for 20 minutes, respectively, at room temperature. Platelet counts in PRP were adjusted with homologous PPP to about 200,000 platelets/μL. For thrombin generation in 100 μL reaction mixture, 75 μL PRP was first mixed with CaCl2, convulxin, and Z-Gly-Gly-Arg-aminomethylcoumarin (Z-GGR-AMC, a thrombin fluorogenic substrate) for 3 minutes at 37° C., followed by adding tissue factor (Innovin, Dade Behring) to initiate the generation of thrombin. A typical reaction mixture contained 15 mM Ca^2+, 0.1 μg/mL convulxin, 100 μM Z-GGR-AMC, and 0.1 nM TF (tissue factor) (Innovin). Thrombin formation was monitored continuously at 37° C. by a fluorometric plate reader (Molecular Devices) measuring the relative fluorescence units (RFU). Inhibitors were pre-incubated with plasma for 20 minutes at room temperature before adding CaCl2 and convulxin.
Non-ASA represents result from donors free of aspirin. ASA represents results from donors taken aspirin for at least three days. % Inhibition was calculated by normalization of mean RFU (n=5) to Non-ASA at 0 nM Compound A.

[5] = tested on: collagen induced platelet aggregation; assay: Ex vivo platelet aggregation induced by 10 μg/mL of collagen; format: in vivo; conditions: Rattus norvegicus
Description: The combination effect of an anticoagulant and anti-platelet agent, aspirin, was investigated in an in vivo model of thrombosis. […] Ex vivo platelet aggregation induced by 10 μg/mL of collagen and clotting times (prothrombin time, PT and activated partial thromboplastin times, aPTT) were measured over the experimental time course (90 min) in all animals.

[6] = tested on: clotting times (prothrombin time, PT and activated partial thromboplastin times, aPTT); assay: Ex vivo clotting times (PT, aPTT) in the rat thrombosis model; conditions: Compound A 0.03 μM, aspirin 3 mg/kg, or both
Description: as §1
as §1, with “The combination effect of an anticoagulant and anti-platelet agent, aspirin, was investigated in an in vivo model of thrombosis. […] In” for “In”, “aspirin.” for “clopidogrel.”, “aspirin” for “clopidogrel”, “administered as an intravenous bolus approximately 30 min prior to the start of the experiment.” for “dosed orally for three days.”, “μg/mL of collagen” for “μM ADP”

[7] = tested on: Interleukin 8; assay: Ex vivo cytokine release in human whole blood: interleukin 8; format: cell-based; conditions: ASA treated donors, no Compound A (Control = 100.0)
Description: An ex vivo assay system of human cytokine release was used to test whether inhibition of factor Xa should augment the effect of reduction of inflammation elicited by standard anti-inflammatory drugs, such as aspirin.
At the end of the activation period, blood samples were centrifuged at 13,000 rpm (15,000 g) for 5 min in an Eppendorf 5415G centrifuge. Plasma was removed, treated with protease inhibitor cocktail (Roche) and stored frozen at −80° C. Cytokines released from the blood cells were quantitated in a Multiplexed Biomarker Immunoassay for Luminex Instrumentation (Millipore USA).

[8] = tested on: human whole blood; assay: Real time perfusion chamber: whole blood perfused over collagen and tissue factor coated surface; format: cell-based; conditions: 2.4 μM eptifibatide alone (0 nM Compound A), shear rate 300 s^−1, five donors
Description: After the perfusion, the thrombotic activity was quantified by measurement of labeled fibrin produced as a result of fibrinogen cleavage during the activation of platelets and the blood coagulation system. For this series of experiments in five healthy human volunteers, blood was obtained by venipuncture and treated with 2.4 μM eptifibatide. The dose of eptifibatide corresponds to the plasma concentration attained by therapeutic concentrations of the GPIIb/IIIa inhibitor.

[9] = tested on: venous thromboembolism (VTE); assay: Prospective randomized trial for prevention of venous thromboembolic events after total knee replacement; conditions: Enoxaparin 30 mg bid subcutaneous, 10-14 days, n = 41
Description: Safety endpoints included the incidence of major and clinically significant nonmajor bleeds through the day after venography. All efficacy and bleeding endpoints were adjudicated by a blinded, independent central adjudication committee.

[10] = tested on: pooled human plasma; assay: Ex vivo clotting assays (aPTT) in pooled human plasma; format: biochemical; conditions: 0.5 U/mL enoxaparin
[11] = Dog # 1, oral, Compound A 3 mg/kg, verapamil 10 mg/kg
[12] = Dog # 2, oral, Compound A 3 mg/kg, verapamil 10 mg/kg
[13] = Dog # 3, oral, Compound A 3 mg/kg, verapamil 10 mg/kg
[14] = following verapamil or placebo administration ([…]), relative to baseline
[15] = three dogs, oral, Compound A 3 mg/kg, verapamil 10 mg/kg

## COC(=O)[C@H](c1ccccc1Cl)N1CCc2sccc2C1 [Clopidogrel, reference compound]
[1]; clopidogrel 0.01 mg/kg (sub-therapeutic dose), oral
  % Animals that did not occlude: 10%
[1]; clopidogrel 1 mg/kg, dosed orally for three days
  inhibition of rat thrombosis (animals that did not occlude): 89%
[2]
  inhibition at 1 mg/kg: 46%

## COc1ccc(CCN(C)CCCC(C#N)(c2ccc(OC)c(OC)c2)C(C)C)cc1OC (stereo not drawn) [Verapamil, reference compound]
[3]; [11]
  Lowest Diastolic Blood Pressure Post-Dosing: 65.11 mmHg
  Lowest Systolic Blood Pressure Post-Dosing: 137.18 mmHg
[3]; [12]
  Lowest Diastolic Blood Pressure Post-Dosing: 62.47 mmHg
  Lowest Systolic Blood Pressure Post-Dosing: 111.90 mmHg
[3]; [13]
  Lowest Diastolic Blood Pressure Post-Dosing: 51.94 mmHg
  Lowest Systolic Blood Pressure Post-Dosing: 95.52 mmHg
[3]; Verapamil 10 mg/kg as a single agent, within one hour of oral administration
  decrease of diastolic blood pressure: 33%
[3]; [14]
  Mean Area Under the Curve for Diastolic Pressure (AUCP), Mean ± S.D.: −3077.8 ± 1845.51 mmHg * min.
  Mean Area Under the Curve for Systolic Pressure (AUCP), Mean ± S.D.: −1133.6 ± 1134.7 mmHg * min.
[3]; following verapamil or placebo administration ([…]), relative to baseline, listed as verapamil
  Mean Area Under the Curve for Diastolic Pressure (AUCP), Mean ± S.D.: −3079±1846 mmHg * min.
[3]; [15]
  Lowest Diastolic Blood Pressure Post-Dosing, Mean ± S.D.: 59.84 ± 6.97^1 mmHg
  Lowest Systolic Blood Pressure Post-Dosing, Mean ± S.D.: 114.87 ± 20.99 mmHg

## CC(=O)Oc1ccccc1C(=O)O [aspirin, acetylsalicylic acid, reference compound]
[4]
  % Inhibition of thrombin generation: 21.5%
[5]; aspirin 1.0 mg/kg iv bolus
  inhibition at 1 mg/kg: < 2%
[5]; aspirin 3 mg/kg iv bolus, read-out: inhibition of collagen induced platelet aggregation in platelet rich plasma
  inhibition at 3 mg/kg: 35%
[5]; aspirin 10 mg/kg iv bolus
  inhibition at 10 mg/kg: 77%
[1]; Compound A 0.03 μM iv infusion, aspirin 3 mg/kg iv bolus, or both
  % DNO (inhibition of rat thrombosis): 30%
[1]; aspirin 1.0 mg/kg iv bolus
  animals that did not occlude: 10%
[1]; aspirin 10 mg/kg iv bolus
  inhibition of rat thrombosis (animals that did not occlude): 33.3%
[1]; average for animals that occluded, Compound A 0.03 μM, aspirin 3 mg/kg, or both
  TTO (Time to occlusion): 31.61 ± 10.91 min
[1]; number of 10 animals, Compound A 0.03 μM iv infusion, aspirin 3 mg/kg iv bolus, or both
  DNO (did not occlude): 3
[6]
  APTT Ratio: 1.02
  PT ratio: 1.01
[7]
  Percent Release of IL8: 66.7%

## N=C(N)NCCCC[C@@H]1NC(=O)CCSSC[C@@H](C(N)=O)NC(=O)[C@@H]2CCCN2C(=O)[C@H](Cc2c[nH]c3ccccc23)NC(=O)[C@H](CC(=O)O)NC(=O)CNC1=O [eptifibatide, reference compound] ([Mpa][hArg]GDWPC-NH2; disulfide 1-7)
[8]
  Mean Fluorescence: 118.0

## Enoxaparin [reference compound]
[9]
  VTE %: 10%
[10]
  activated partial thromboplastin time (aPTT): 55 s
